Target: T1, Oatp1b2 (Mus musculus, UniProt Q9JJL3)
T1 sequence (Q9JJL3 1-689): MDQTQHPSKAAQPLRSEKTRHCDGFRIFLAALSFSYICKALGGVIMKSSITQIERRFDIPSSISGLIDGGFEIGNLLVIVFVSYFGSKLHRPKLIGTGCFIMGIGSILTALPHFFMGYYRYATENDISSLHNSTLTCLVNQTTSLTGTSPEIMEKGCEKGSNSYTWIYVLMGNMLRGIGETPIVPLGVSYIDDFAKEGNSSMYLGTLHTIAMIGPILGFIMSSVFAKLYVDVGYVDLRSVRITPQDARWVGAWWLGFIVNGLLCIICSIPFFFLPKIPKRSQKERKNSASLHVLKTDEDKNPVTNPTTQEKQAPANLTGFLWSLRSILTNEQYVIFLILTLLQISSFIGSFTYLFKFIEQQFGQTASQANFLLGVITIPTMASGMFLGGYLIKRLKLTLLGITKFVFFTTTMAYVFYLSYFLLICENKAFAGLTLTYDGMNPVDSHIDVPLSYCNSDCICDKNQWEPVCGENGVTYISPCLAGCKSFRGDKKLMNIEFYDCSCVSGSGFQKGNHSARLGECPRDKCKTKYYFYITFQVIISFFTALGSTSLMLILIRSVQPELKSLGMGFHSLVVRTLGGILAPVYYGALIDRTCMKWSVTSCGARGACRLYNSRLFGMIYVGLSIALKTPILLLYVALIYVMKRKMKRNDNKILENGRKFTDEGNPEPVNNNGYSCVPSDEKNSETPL
Experiment: Untargeted metabolomics of plasma from untreated wild-type and Oatp1b2(−/−) mice
Conditions: for Fold of Change KO/WT: plasma of untreated Oatp1b2-deficient (KO) vs wild-type (WT) mice, semi-quantitative, positive = higher in KO, n = 6 per group; for Mean value KO: plasma of untreated Oatp1b2-deficient mice; for Mean value KO / Mean value WT: raw area counts rescaled to median = 1; for Mean value WT: plasma of untreated wild-type mice
Description: For all experiments, age- and sex-matched mice (8–12 weeks old) were used. […] Mice with a deficiency of Oatp1b2 (Oatp1b2(−/−) mice), the single murine orthologue of OATP1B1 and OATP1B3 in humans, on a DBA/1LacJ background were kindly provided by Drs. Richard B. Kim (Western University, London, Ontario, Canada) and Jeffrey L. Stock (Pfizer, Groton, CT, USA).
Plasma samples from untreated wild-type mice and Oatp1b2(−/−) mice were analyzed for structurally named and unknown molecules using a non-targeted semi-quantitative liquid chromatography-tandem mass spectrometry (LC-MS/MS) and gas chromatography-mass spectrometry platforms (Metabolon, Durham, NC, USA). Compounds were identified by comparison with library entries of purified standards or recurrent unknown entities.

Row | Compound | Fold of Change KO/WT | Mean value KO | Mean value WT
1 | C[C@H](CCC(=O)O)[C@H]1CC[C@H]2[C@@H]3[C@@H](O)C[C@@H]4C[C@H](O)CC[C@]4(C)[C@H]3CC[C@]12C [ursodeoxycholate] | 4.07 | 2.16 | .530
2 | CCCCCCCCCCCCCCC=COCC(O)COP(=O)([O-])OCC[N+](C)(C)C (stereo not shown) [1-(1-enyl-palmitoyl)-GPC (P-16:0)] | 1.59 | 1.26 | .795
3 | CCCCCCCCCCCCCCCCC(N)=O [margaramide (17:0)] | 1.45 | 1.19 | .826
4 | CC(C)CCC[C@@H](C)[C@H]1CC[C@H]2[C@@H]3CCC4=CC(=O)CC[C@]4(C)[C@H]3CC[C@]12C [4-cholesten-3-one] | 1.29 | 1.12 | .870
5 | CCCCC/C=C\C/C=C\CCCCCCCC(=O)OC[C@@H](O)COP(=O)([O-])OCC[N+](C)(C)C [1-linoleoyl-GPC (18:2)] | 1.62 | 1.22 | .752
6 | NCCS(=O)O [hypotaurine] | 1.28 | 1.14 | .887
7 | eicosenedioate (C20:1-DC) | 5.36 | 1.80 | .335
8 | Cc1cn([C@H]2C[C@H](O)[C@@H](CO)O2)c(=O)nc1N [5-methyl-2'-deoxycytidine] | 1.83 | 1.56 | .852
9 | CC(=O)N[C@@H](CCCCNC(N)=O)C(=O)O [N-acetylhomocitrulline] | 1.35 | 1.17 | .861
10 | (N(1) + N(8))-acetylspermidine |  |  | .931
11 | CCCCCCCC/C=C\CCCCCC/C=C\OC[C@@H](O)COP(=O)(O)OCCN [1-(1-enyl-oleoyl)-GPE (P-18:1)] | 2.16 | 1.45 | .672
12 | CC/C=C\C/C=C\C/C=C\CCCCCCCC(=O)O[C@H](COC(=O)CCCCCCC/C=C\C/C=C\CCCCC)COP(=O)([O-])OCC[N+](C)(C)C [1-linoleoyl-2-linolenoyl-GPC (18:2/18:3)] | 1.51 | 1.40 | .923
13 | CC(=O)N[C@@H](CC(=O)c1ccccc1N)C(=O)O [N-acetylkynurenine (2)] | 1.41 | 1.17 | .827
14 | CCCCCC/C=C\CCCC(=O)OC(CC(=O)[O-])C[N+](C)(C)C (stereo not shown) [5-dodecenoylcarnitine (C12:1)] | 1.46 | 1.37 | .936
15 | C[C@H](CCC(=O)O)[C@H]1CC[C@H]2[C@@H]3[C@H](O)[C@H](O)[C@@H]4C[C@H](O)CC[C@]4(C)[C@H]3CC[C@]12C [hyocholate] | 5.64 | 1.41 | .251
16 | enterolactone sulfate | 3.42 | 1.63 | .478
17 | CCCCCCCCCCCCCCCCCCCC(=O)OC(CC(=O)[O-])C[N+](C)(C)C (stereo not shown) [arachidoylcarnitine (C20)] | 1.36 | 1.21 | .889
18 | COP(=O)(O)O [methylphosphate] | 1.27 | 1.08 | .848
19 | linolenoylcarnitine (C18:3) | 1.91 | 1.51 | .794
20 | O=C(O)CNC(=O)/C=C/c1ccccc1 [cinnamoylglycine] | 1.99 | 1.54 | .776
21 | C[C@H](CCC(=O)O)[C@H]1CC[C@H]2[C@@H]3[C@@H](O)[C@@H](O)[C@@H]4C[C@H](O)CC[C@]4(C)[C@H]3CC[C@]12C [beta-muricholate] | 15.2 | 2.84 | .187
22 | CCCCC/C=C\C/C=C\C/C=C\C/C=C\CCCC(=O)OC[C@@H](O)COP(=O)(O)OCCN [1-arachidonoyl-GPE (20:4n6)] | 1.49 | 1.20 | .803

Other lines, results leading:

Row | Fold of Change KO/WT | Mean value KO | Mean value WT | Compound
23 | 8.19 | 1.80 | .219 | CCCCCCCC/C=C\CCCCCCCC(=O)OCC(O)COP(=O)(O)OCC(O)CO (stereo not shown) [1-oleoyl-GPG (18:1)]
24 | 1.44 | 1.30 | .902 | O=C(O)CCCCCCCCCCCCCCCCCC(=O)O [nonadecanedioate (C19-DC)]
25 | 1.34 | 1.13 | .839 | CCCCC/C=C\C/C=C\C/C=C\C/C=C\CCCC(=O)O[C@H](CO/C=C\CCCCCCCCCCCCCC)COP(=O)(O)OCCN [1-(1-enyl-palmitoyl)-2-arachidonoyl-GPE (P-16:0/20:4)]
26 | 1.38 | 1.22 | .886 | CCCCCCCC/C=C\CCCCCCCC(N)=O [oleamide]
27 | 2.03 | 1.44 | .707 | Cc1c(C)c2c(c(C)c1O)CC[C@@](C)(CCC[C@H](C)CCC[C@H](C)CCCC(C)C)O2 [α-tocopherol]
28 | 1.72 | 1.37 | .795 | dihomo-linolenoylcarnitine (C20:3n3 or 6)
29 | 1.22 | 1.08 | .884 | O=C1CC(C(=O)O)C(C(=O)O)O1 (stereo not shown) [isocitric lactone]
30 | 3.57 | 2.09 | .585 | C[C@H](CCC(=O)O)[C@H]1CC[C@H]2[C@@H]3[C@H](O)C[C@@H]4C[C@H](O)CC[C@]4(C)[C@H]3CC[C@]12C [chenodeoxycholate]
31 | 1.58 | 1.10 | .694 | C[C@H](CCC(=O)NCCS(=O)(=O)O)[C@H]1CC[C@H]2[C@@H]3CC[C@@H]4C[C@H](OS(=O)(=O)O)CC[C@]4(C)[C@H]3C[C@H](O)[C@]12C [taurodeoxycholic acid 3-sulfate]
32 | 1.32 | 1.02 | .769 | sphingomyelin (d17:1/14:0, d16:1/15:0)
33 | 1.97 | 1.31 | .666 | CCCCCC/C=C\CCCCCCCC(=O)OC[C@@H](O)COP(=O)([O-])OCC[N+](C)(C)C [1-palmitoleoyl-GPC (16:1)]
34 | 2.14 | 1.16 | .540 | pregnenediol disulfate (C21H34O8S2)
35 | 1.77 | 1.42 | .805 | Cc1ncc(CO)c(CN)c1O [pyridoxamine]
36 | 1.68 | 1.43 | .850 | CC(C)C(O)C(=O)O (stereo not drawn) [alpha-hydroxyisovalerate]
37 | 3.45 | 1.82 | .528 | C[C@H](CCC(=O)NCCS(=O)(=O)O)[C@H]1CC[C@H]2[C@@H]3CC[C@@H]4C[C@H](O)CC[C@]4(C)[C@H]3C[C@H](O)[C@]12C [taurodeoxycholate]
38 | 3.61 | 1.62 | .448 | hexadecenedioate (C16:1-DC)
39 | 1.79 | 1.30 | .725 | CCCCCCCCCCCCCC/C=C\OC[C@@H](O)COP(=O)(O)OCCN [1-(1-enyl-palmitoyl)-GPE (P-16:0)]
40 | 1.64 | 1.34 | .818 | O=C(O)Cc1cn(C2O[C@H](CO)[C@@H](O)[C@H]2O)cn1 (stereo partly shown) [1-ribosyl-imidazoleacetate]
41 | 2.36 | 1.41 | .595 | CCCCC/C=C\C/C=C\CCCCCCCC(=O)OC[C@@H](O)COP(=O)(O)O [1-linoleoyl-GPA (18:2)]
42 | 1.62 | 1.39 | .855 | O=C(O)CCc1ccccc1.O=C(O)CCc1ccccc1 [3-phenylpropionate (hydrocinnamate)]
43 | 1.34 | 1.21 | .902 | Cc1ncc(CO)c(C(=O)O)c1O [pyridoxate]
44 | 1.87 | 1.36 | .729 | CCCCCCCC/C=C\CCCCCCCC(=O)OC[C@@H](O)COP(=O)(O)OC1[C@H](O)[C@H](O)C(O)[C@H](O)[C@H]1O (stereo partly shown) [1-oleoyl-GPI (18:1)]

Reference: article PMC9502272, “A Metabolomics Approach for Predicting OATP1B-Type Transporter-Mediated Drug–Drug Interaction Liabilities” (Pharmaceutics, 2022)
